# Measured values reported in patent publication US20230339863A1, “INDAZOLE DERIVATIVES AS CANNABINOID RECEPTOR PARTIAL AGONISTS” (RESEARCH TRIANGLE INSTITUTE, priority 2020, published 2023).
# Assays:
# human CB1 [1] = biological target: T1, human CB1 (Homo sapiens (Human), UniProt P21554); assay: In vitro binding affinity, [3H]CP-55,940 radioligand displacement, HEK cell membranes overexpressing human CB1; settings: [3H]CP-55,940 displacement, read-out: hCB1 Ki
# Experimental: (§1) In vitro binding affinity determination using radioligand displacement. Plasma membranes were isolated from HEK cells overexpressing either human CB1 or CB2. Binding was initiated with the addition of 40 μg of cell membrane proteins to assay tubes containing [3H]CP-55,940 (ca. 130 Ci/mmol), a test compound (for displacement studies), and a sufficient quantity of buffer (50 mM Tris-HCl, 1 mM EDTA, 3 mM MgCl2, 5 mg/mL BSA, pH 7.4) to bring the total incubation volume to 0.5 mL. Nonspecific binding was determined by the inclusion of 10 μM unlabeled CP-55,940. Following incubation at 30° C. for 1 h, binding was terminated by vacuum filtration through GF/C glass fiber filter plates. The filter plates were washed extensively and air-dried and sealed on the bottom. Liquid scintillate was added to the wells and the top sealed. After incubating the plates in cocktail for at least 2 h, the radioactivity present was determined by liquid scintillation spectrometry. Assays were done in duplicate, and results represent combined data from 3-6 experiments. Saturation and displacement data were analyzed by unweighted nonlinear regression of receptor binding data. For displacement studies, curve-fitting and IC50 calculation were done with GraphPad Prism (GraphPad Software, Inc., San Diego, CA).
# (§2) Reference is made to the following reference, hereby incorporated by reference with regard to such assay, Zhang et al., Synthesis and biological evaluation of bivalent ligands for the cannabinoid 1 receptor, J Med Chem. 2010 Oct. 14; 53 (19):7048-60. doi: 10.1021/jm1006676.
# human CB2 [2] = biological target: T2, human CB2 (Homo sapiens (Human), UniProt P34972); assay: In vitro cannabinoid receptor activity assay (calcium mobilization, FLIPR) in CHO cells expressing human CB2 and Gαq16; type: cell-based; settings: for EC50: CHO cells, hCB2, calcium fluorescence, read-out: hCB2 Ca EC50; for hCB2 Ca Span: percentage of the maximum CP55940 signal
# Experimental: (§3) In vitro cannabinoid receptor activity assay. Chinese Hamster Ovary (CHO) cells stably expressing either human CB1 or CB2 cDNA and the promiscuous G-protein Gαq16 were transferred to each well of a black Costar 96-well optical bottom plate (Corning Corporation). Each plate was incubated at 37° C. for 24 hr to confluence. The culture media was removed from the plates and cells were subsequently loaded with a fluorescent calcium probe (Calcium 5 dye, Molecular Devices) at a final loading concentration of 2 μM in a HBSS-based buffer containing 20 mM HEPES, 1% BSA and 10 μM Probenecid (Sigma) in a total volume of 225 μl. Cells were incubated at 37° C. for 1 hr and then stimulated with various concentrations of a test agent using a FLIPR Tetra plate-reader, which automatically added the agonist at 10× concentration to each well after reading baseline values for ˜17 sec. Agonist-mediated change in fluorescence (488 nm excitation, 525 nm emission) was monitored in each well at 1 sec intervals for 60 sec and reported for each well. Data were analyzed using Prism software (GraphPad). Non-linear regression analysis was performed to fit data and obtain maximum response (Emax), effective concentration for 50% response (EC50), correlation coefficient (r2) and other parameters. All experiments were performed 3-6 times to ensure reproducibility.
# (§4) Reference is made to the following reference, hereby incorporated by reference with regard to such assay, Seltzman, et al., Peripherally Selective Cannabinoid 1 Receptor (CB1R) Agonists for the Treatment of Neuropathic Pain, J Med Chem. 2016 Aug. 25; 59 (16):7525-43. doi: 10.1021/acs.jmedchem.6b00516. Epub 2016 Aug. 10.
# human CB2 [3] = biological target: T2, human CB2; assay: In vitro binding affinity, [3H]CP-55,940 radioligand displacement, HEK cell membranes overexpressing human CB2; settings: [3H]CP-55,940 displacement, read-out: hCB2 Ki
# Experimental: as §1, §2
# human CB1 [4] = biological target: T1, human CB1; assay: In vitro cannabinoid receptor activity assay (calcium mobilization, FLIPR) in CHO cells expressing human CB1 and Gαq16; type: cell-based; settings: for EC50: CHO cells, hCB1, calcium fluorescence, read-out: hCB1 Ca EC50; for hCB1 Ca Span: percentage of the maximum CP55940 signal
# Experimental: as §3, §4
SMILES,Ki (human CB1 [1]),EC50 (human CB2 [2]),hCB2 Ca Span (human CB2 [2]),Ki (human CB2 [3]),EC50 (human CB1 [4]),hCB1 Ca Span (human CB1 [4])
"CC(C)(NC(=O)c1nn(Cc2ccc(F)cc2F)c2ccccc12)c1cccc(C(N)=O)c1 [Example 13, N-[2-(3-Carbamoylphenyl)propan-2-yl]-1-[(2,4-difluorophenyl)methyl]-1H-indazole-3-carboxamide]",18 nM,300 nM,19%,27 nM,180 nM,32%
"CC(C)(NC(=O)c1nn(Cc2ccc(F)cc2)c2ccccc12)C1CCCN(CC(N)=O)C1 (stereo not drawn) [Example 30, N-{2-[1-(Carbamoylmethyl)piperidin-3-yl]propan-2-yl}-1-[(4-fluorophenyl)methyl]-1H-indazole-3-carboxamide]",48 nM,63 nM,12%,21 nM,330 nM,40%
